Experimental findings from patent publication US20140057915A1, “KINASE INHIBITORS” (TOPIVERT PHARMA LIMITED, priority 2012, published 2014) are described below.

The target in one data set is cSrc (Homo sapiens, UniProt P12931). Put plainly: c-Src enzyme inhibition (FRET). The data set is classed as biochemical. The method, boiled down:
(§1)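 Enzyme was preincubated with test compound (added as 4, 0.4, 0.04 or 0.004 μg/mL solutions) for 2 hr at RT. FRET peptide (8 μM solution) and ATP solution (800 μM for c-Src, 60 μM for Syk) were then added for 1 hr, followed by 1 hr protease development.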

The next data set has as its target Syk (Homo sapiens, UniProt P43405). The data set is described as follows: Syk enzyme inhibition (FRET). The data set is classed as biochemical. Summed up: as §1
For data set [1], the target named is T1, GSK3α (Homo sapiens, UniProt P49840). Put plainly: GSK 3α enzyme inhibition (FRET), Method 1. The note with it: Table 4a1. The data set is classed as biochemical. The method, boiled down: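 Z-LYTE FRET format. Enzyme (500 ng/mL stock) + compound (stocks 4–0.004 μg/mL), 2 hr RT; add peptide (8 μM stock) + ATP (40 μM stock), 1 hr; protease 1 hr; read donor/acceptor emission ratio.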

The subject of data set [2] is TNFα release, d-U937 cells. Put plainly: LPS-induced TNFα release in d-U937 cells. It is filed as cell-based. As to conditions: Homo sapiens, dU937; relative to 10 μg/mL BIRB796; Table 4c1; read-out: LPS Induced Release of Cytokine in d-U937 Cells, TNFα REC50. The method, boiled down: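 U937 cells differentiated with PMA (100 ng/mL, 48–72 hr), pre-treated with compound for 2 hr, then stimulated with E. coli LPS (0.1 μg/mL) for 4 hr. Supernatant cytokine measured by sandwich ELISA; inhibition versus vehicle control, REC50 from concentration-response curve.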

Data set [3] has as its system IL-8 release, d-U937 cells. The data set is described as follows: LPS-induced IL-8 release in d-U937 cells. The data set is classed as cell-based. As to conditions: Homo sapiens, dU937; Table 4c1; read-out: LPS Induced Release of Cytokine in d-U937 Cells, IL-8 IC50. Summed up:
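IL-8 release after a 4 hr challenge with LPS (0.1 μg/mL, E. coli 0111:B4) following a 2 hr compound pretreatment. Cells were human U937 monocytes differentiated to macrophage-type with PMA 100 ng/mL for 48–72 hr. Relative 50% effective concentration derived from concentration–response data.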

The test system of data set [4] is ICAM-1 expression, BEAS2B cells. The data set is described as follows: Poly I:C-induced ICAM-1 expression in BEAS2B cells. It is filed as cell-based. As to conditions: Homo sapiens, BEAS-2B; read-out: Poly IC induced ICAM1 in BEAS2B, IC50. Summed up: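 BEAS2B human bronchial epithelial cells pre-incubated 2 h with compound, then transfected with poly I:C (1 μg/mL) plus Oligofectamine. After 18 h, cell-surface ICAM-1 read by cell-based ELISA (A450–655), normalised to Crystal Violet cell number (A595); inhibition calculated against vehicle control at each concentration.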

The next data set concerns PBMC cells. The data set is described as follows: Cell mitosis assay. It is filed as cell-based. As to conditions: Homo sapiens, read-out: % Inhibition of mitosis in PBMC cells at 5 μg/mL. The method, then:
PBMCs from healthy subjects are separated from whole blood (Quintiles, London, UK) using a density gradient (Histopaque®-1077, Sigma-Aldrich, Poole, UK). The PBMCs (3 million cells per sample) are subsequently treated with 2% PHA (Sigma-Aldrich, Poole, UK) for 48 hr, followed by a 20 hr exposure to varying concentrations of test compounds. At 2 hr before collection, PBMCs are treated with demecolcine (0.1 μg/mL; Invitrogen, Paisley, UK) to arrest cells in metaphase. […] Fluorescence is observed using an ATTUNE flow cytometer (Invitrogen, Paisley, UK), gating for lymphocytes.

Another data set has as its system d-U937 cells. The data set is described as follows: Cell viability: MTT assay. The data set is classed as cell-based, human. The note with it: 1 μg/mL. Summed up: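 Differentiated U937 cells exposed to compound at 1 or 10 μg/mL, either 4 h in 5% FCS or 24 h in 10% FCS RPMI1640. MTT then added for 1 h, formazan dissolved in DMSO and read at 550 nm. Viability loss given as % versus 0.5% DMSO vehicle; apparent gains appear negative.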
A general note: Formazan colour is commonly taken as a measure of viable cells.

The target in data set [5] is T1, GSK3α. The data set is described as follows: GSK 3α enzyme inhibition (FRET), Method 2. It is filed as biochemical. The note with it: Table 4a2, different laboratory.
A further data set has as its system IL-8 release, PBMCs. Put plainly: LPS-induced IL-8 release in PBMC cells. The data set is classed as cell-based. The note with it: Homo sapiens, LPS stimulated, read-out: IC50 Values for Inhibition of Cytokine Release, PBMCs, IL-8. The method, then:
(b) LPS-Induced TNFα/IL-8 Release in PBMC Cells
Peripheral blood mononuclear cells (PBMCs) from healthy subjects are separated from whole blood using a density gradient (Lymphoprep, Axis-Shield Healthcare). The PBMCs are seeded in 96 well plates and treated with compounds at the desired concentration for 2 hours before addition of 1 ng/ml LPS (Escherichia Coli 0111:B4 from Sigma Aldrich) for 24 hours under normal tissue culture conditions (37° C., 5% CO2). The supernatant is harvested for determination of […] concentrations by sandwich ELISA (Duo-set, R&D systems) and read on the fluorescence microplate reader (Varioskan® Flash, ThermoFisher Scientific).

Where [6] appears, read: Table 4a2, different laboratory.

Each structure is given as a SMILES string. Where only a bound is given, the exact number is not on record here.

cSrc, sequence (P12931 whole entry): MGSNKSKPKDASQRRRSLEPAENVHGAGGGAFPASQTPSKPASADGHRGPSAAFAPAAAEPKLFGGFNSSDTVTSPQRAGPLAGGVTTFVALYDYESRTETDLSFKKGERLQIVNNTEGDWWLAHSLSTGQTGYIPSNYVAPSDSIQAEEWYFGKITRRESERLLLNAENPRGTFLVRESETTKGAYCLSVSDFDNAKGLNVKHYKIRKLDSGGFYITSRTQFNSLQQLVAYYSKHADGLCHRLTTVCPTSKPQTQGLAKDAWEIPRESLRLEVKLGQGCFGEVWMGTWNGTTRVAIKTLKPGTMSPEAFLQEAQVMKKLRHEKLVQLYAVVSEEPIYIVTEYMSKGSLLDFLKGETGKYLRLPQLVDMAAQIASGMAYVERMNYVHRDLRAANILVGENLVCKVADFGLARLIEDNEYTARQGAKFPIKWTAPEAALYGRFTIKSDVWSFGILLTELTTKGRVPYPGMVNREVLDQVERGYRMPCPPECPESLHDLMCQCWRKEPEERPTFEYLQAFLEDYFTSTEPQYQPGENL
T1 sequence (P49840 whole entry): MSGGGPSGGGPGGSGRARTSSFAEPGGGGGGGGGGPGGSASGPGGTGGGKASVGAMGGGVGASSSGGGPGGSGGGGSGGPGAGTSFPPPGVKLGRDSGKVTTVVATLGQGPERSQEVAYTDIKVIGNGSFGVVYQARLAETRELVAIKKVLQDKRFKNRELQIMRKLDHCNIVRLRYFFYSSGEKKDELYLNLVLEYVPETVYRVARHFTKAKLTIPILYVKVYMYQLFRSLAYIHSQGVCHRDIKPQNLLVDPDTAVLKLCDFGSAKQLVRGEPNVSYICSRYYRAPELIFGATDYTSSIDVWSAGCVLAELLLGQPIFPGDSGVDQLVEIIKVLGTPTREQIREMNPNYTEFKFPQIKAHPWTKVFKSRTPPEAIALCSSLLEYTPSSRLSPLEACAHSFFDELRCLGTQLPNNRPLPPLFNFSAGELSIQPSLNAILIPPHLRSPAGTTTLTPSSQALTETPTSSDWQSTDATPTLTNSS

For `Cc1ccc(-n2nc(C(C)(C)C)cc2NC(=O)Nc2ccc(Oc3ccnc(Nc4cccc(C(N)=O)c4)n3)c3ccccc23)cc1` [Example 2, 3-((4-((4-(3-(3-(tert-Butyl)-1-(p-tolyl)-1H-pyrazol-5-yl)ureido)naphthalen-1-yl)oxy)pyrimidin-2-yl)amino)benzamide], the IC50 against cSrc (Table 4a1) came out at 5 nM; against Syk (Table 4a1), 250 nM; on GSK3α [1] it was 1260 nM; in data set [3], 4.5 nM; in [4] it was 1 nM. Besides, in data set [2], the EC50 worked out at 0.8 nM. For the same compound, the inhibition at 5 µg/mL in the data set with PBMC cells came out at 46.5%. The “Cell viability at time point in d-U937 cells, 4 h” value in the data set with d-U937 cells was “−ve (−ve and +ve indicate that the value is below and above respectively, the no significant effect threshold, defined as 30% inhibition at 1 μg/mL at the time point indicated)”. In the data set on d-U937 cells, the “Cell viability at time point in d-U937 cells, 24 h” value (“Cell viability at time point … 24 h” below) was “−ve (−ve and +ve indicate that the value is below and above respectively, the no significant effect threshold, defined as 30% inhibition at 1 μg/mL at the time point indicated)”.
In the case of `COc1cc(Nc2nccc(Oc3ccc(NC(=O)Nc4cc(C(C)C)nn4-c4ccc(C)cc4)c4ccccc34)n2)cc(C(=O)NCCN(C)C)c1` [Example 5, N-(2-(Dimethylamino)ethyl)-3-((4-((4-(3-(3-isopropyl-1-(p-tolyl)-1H-pyrazol-5-yl)ureido)naphthalen-1-yl)oxy)pyrimidin-2-yl)amino)-5-methoxybenzamide], the IC50 was determined as 2 nM at cSrc (Table 4a1); 7 nM against Syk (Table 4a1); 1470 nM against GSK3α [1]; 1.3 nM in data set [3]; 0.2 nM in [4]. Moreover, in [2], the EC50 is 0.2 nM. The inhibition at 5 µg/mL with PBMC cells was 28.3%. The “Cell viability at time point in d-U937 cells, 4 h” value in the data set on d-U937 cells is “−ve (−ve and +ve indicate that the value is below and above respectively, the no significant effect threshold, defined as 30% inhibition at 1 μg/mL at the time point indicated)”. In addition, the “Cell viability at time point … 24 h” value in the data set with d-U937 cells is “−ve (−ve and +ve indicate that the value is below and above respectively, the no significant effect threshold, defined as 30% inhibition at 1 μg/mL at the time point indicated)”.
On to `Cc1ccc(-n2nc(C(C)C)cc2NC(=O)Nc2ccc(Oc3ccnc(Nc4cccc(C(=O)NCCN5CCOCC5)c4)n3)c3ccccc23)cc1` [Example 19, 3-((4-((4-(3-(3-isopropyl-1-(p-tolyl)-1H-pyrazol-5-yl)ureido)naphthalen-1-yl)oxy)pyrimidin-2-yl)amino)-N-(2-morpholinoethyl)benzamide], for which the results for the IC50 (against Syk (Table 4a1); against GSK3α [1]; in data set [3]) were 4 nM, 1240 nM and 0.2 nM, respectively. Also, the EC50 in data set [2] stood at 0.3 nM. The inhibition at 5 µg/mL with PBMC cells was determined as 25.3%. Also, the “Cell viability at time point in d-U937 cells, 4 h” value in the data set on d-U937 cells is “−ve (−ve and +ve indicate that the value is below and above respectively, the no significant effect threshold, defined as 30% inhibition at 1 μg/mL at the time point indicated)”. Besides, the “Cell viability at time point … 24 h” value in the data set on d-U937 cells is “−ve (−ve and +ve indicate that the value is below and above respectively, the no significant effect threshold, defined as 30% inhibition at 1 μg/mL at the time point indicated)”.
Take `COc1cc(C(=O)NCCN2CCOCC2)ccc1Nc1nccc(Oc2ccc(NC(=O)Nc3cc(C(C)C)nn3-c3ccc(C)cc3)c3ccccc23)n1` [Example 36, 4-((4-((4-(3-(3-isopropyl-1-(p-tolyl)-1H-pyrazol-5-yl)ureido)naphthalen-1-yl)oxy)pyrimidin-2-yl)amino)-3-methoxy-N-(2-morpholinoethyl)benzamide]: the IC50 against cSrc (Table 4a1) was 8 nM; on Syk (Table 4a1) it was 169 nM; against GSK3α [1], more than 13200 nM; against GSK3α [5], not below 13200 nM; in data set [3] it was 46 nM; with IL-8 release, PBMCs it was 30.4 nM. The IC50 in [4] worked out at 82.3 nM. In addition, in [2], the EC50 amounted to 4.7 nM. Besides, in the data set with d-U937 cells, the “Cell viability at time point in d-U937 cells, 4 h” value is “−ve (−ve and +ve indicate that the value is below and above respectively, the no significant effect threshold, defined as 30% inhibition at 1 μg/mL at the time point indicated)”. In the data set on d-U937 cells, the “Cell viability at time point … 24 h” value was “−ve (−ve and +ve indicate that the value is below and above respectively, the no significant effect threshold, defined as 30% inhibition at 1 μg/mL at the time point indicated)”.
As for `CCc1cc(NC(=O)Nc2ccc(Oc3ccnc(Nc4cc(OC)cc(C(=O)NCCN5CCOCC5)c4)n3)c3ccccc23)n(-c2ccc(C)cc2)n1` [Example 49, 3-((4-((4-(3-(3-ethyl-1-(p-tolyl)-1H-pyrazol-5-yl)ureido)naphthalen-1-yl)oxy)pyrimidin-2-yl)amino)-5-methoxy-N-(2-morpholinoethyl)benzamide], the IC50 against cSrc (Table 4a1) was 1 nM; on Syk (Table 4a1) it was 57 nM; against GSK3α [1] it was more than 13500 nM; on GSK3α [5] it was not below 13500 nM; in [3], 17.2 nM; in the data set with IL-8 release, PBMCs it was 19 nM. In addition, the IC50 in data set [4] stood at 33 nM. For the same compound, the EC50 in [2] was 9.2 nM. Also, the “Cell viability at time point in d-U937 cells, 4 h” value with d-U937 cells is “−ve (−ve and +ve indicate that the value is below and above respectively, the no significant effect threshold, defined as 30% inhibition at 1 μg/mL at the time point indicated)”. In addition, the “Cell viability at time point … 24 h” value in the data set with d-U937 cells was “−ve (−ve and +ve indicate that the value is below and above respectively, the no significant effect threshold, defined as 30% inhibition at 1 μg/mL at the time point indicated)”.
As to `C#Cc1cc(Nc2nccc(Oc3ccc(NC(=O)Nc4cc(C(C)C)nn4-c4ccc(C)cc4)c(Cl)c3Cl)n2)cc(C(=O)NCCN2CCOCC2)c1` [Example 87, 3-((4-(2,3-Dichloro-4-(3-(3-isopropyl-1-(p-tolyl)-1H-pyrazol-5-yl)ureido)-phenoxy)pyrimidin-2-yl)amino)-5-ethynyl-N-(2-morpholinoethyl)benzamide], the IC50 was found to be 22 nM on cSrc (setting [6]); 27 nM at Syk (setting [6]); 5840 nM on GSK3α [5]; 9.4 nM with IL-8 release, PBMCs.
Take `C#Cc1cc(Nc2nccc(Oc3ccc(NC(=O)Nc4cc(C(C)C)nn4-c4ccc(C)cc4)c(Cl)c3Cl)n2)cc(C(=O)NCCN(C)C)c1` [Example 90, 3-((4-(2,3-Dichloro-4-(3-(3-isopropyl-1-(p-tolyl)-1H-pyrazol-5-yl)ureido)-phenoxy)pyrimidin-2-yl)amino)-N-(2-(dimethylamino)ethyl)-5-ethynylbenzamide]: the IC50 stood at 154 nM against GSK3α [5] and 7.8 nM in the data set with IL-8 release, PBMCs.

The term IC50 denotes the concentration needed to halve the response being measured.
